Results published in patent US20230135635A1, “INHIBITORS OF ULK1/2 AND METHODS OF USING SAME” (SALK INSTITUTE FOR BIOLOGICAL STUDIES, priority 2020, published 2023).

biological target: T1, recombinant human ULK1 protein (1-649) (Homo sapiens, UniProt O75385); assay: ULK1 inhibition assay (ADP Glo); format: biochemical; details: Table 1; 25 uM ATP, MBP substrate, one hour
T1 construct: recombinant human ULK1 protein (1-649, SignalChem #U01-11G); purchased SignalChem U01-11G
T1 sequence (O75385 1-649): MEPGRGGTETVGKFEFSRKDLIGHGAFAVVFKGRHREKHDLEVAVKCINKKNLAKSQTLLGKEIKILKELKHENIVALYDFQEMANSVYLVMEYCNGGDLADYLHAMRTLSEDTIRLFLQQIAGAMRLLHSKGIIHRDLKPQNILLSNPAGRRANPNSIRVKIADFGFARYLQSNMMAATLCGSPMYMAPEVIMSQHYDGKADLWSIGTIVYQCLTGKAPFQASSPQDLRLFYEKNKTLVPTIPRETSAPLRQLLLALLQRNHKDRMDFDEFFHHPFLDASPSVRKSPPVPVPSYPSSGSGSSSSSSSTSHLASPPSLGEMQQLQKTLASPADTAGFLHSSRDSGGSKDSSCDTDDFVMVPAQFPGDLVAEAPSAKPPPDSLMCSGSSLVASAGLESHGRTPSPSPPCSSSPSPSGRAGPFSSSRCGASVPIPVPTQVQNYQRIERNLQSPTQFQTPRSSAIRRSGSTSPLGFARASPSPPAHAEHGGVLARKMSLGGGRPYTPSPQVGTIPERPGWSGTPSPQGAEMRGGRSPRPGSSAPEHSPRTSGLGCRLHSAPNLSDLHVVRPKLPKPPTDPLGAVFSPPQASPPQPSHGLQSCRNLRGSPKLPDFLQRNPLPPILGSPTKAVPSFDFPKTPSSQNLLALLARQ
In short: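 Recombinant ULK1 (2 ug/mL) phosphorylated myelin basic protein (80 ug/mL) at 25 uM ATP; ADP formed was detected by ADP-Glo after 1 h. Compounds ran in triplicate, 16-dose 3-fold serial dilution from 30 uM, to give IC50.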

Compound	IC50
CNC(=O)c1ccccc1Nc1nc(Nc2ccc3c(c2)CCN(CCOC)C3)ncc1Br [Compound A118, 2-((5-Bromo-2-((2-(2-methoxyethyl)-1,2,3,4-tetrahydroisoquinolin-6-yl)amino)pyrimidin-4-yl)amino)-N-methylbenzamide]	0.001 to 0.01 µM
CC(=O)N1CCc2cc(Nc3ncc(C(F)(F)F)c(NC4CC4)n3)ccc2C1 [Compound A19]	< 0.001 µM
CNC(=O)c1ccccc1Nc1nc(Nc2ccc3c(c2)CCN(CCOC)C3)ncc1Cl [Compound A117, 2-((5-Chloro-2-((2-(2-methoxyethyl)-1,2,3,4-tetrahydroisoquinolin-6-yl)amino)pyrimidin-4-yl)amino)-N-methylbenzamide]	0.001 to 0.01 µM
NCCN1CCc2ccc(Nc3ncc(C(F)(F)F)c(NC4CC4)n3)cc2C1 [Compound A103]	0.001 to 0.01 µM
CC(C)(C)OC(=O)N1CCc2cc(Nc3ncc(N)c(NC4CC4)n3)ccc2C1 [Compound A22]	> 0.01 µM
CNC(=O)c1ccccc1Nc1nc(Nc2ccc3c(c2)CN(C(=O)N2CCN(C)CC2)CC3)ncc1Br [Compound A150, 2-{5-Bromo-2-[2-(4-methyl-piperazine-1-carbonyl)-1,2,3,4-tetrahydro-isoquinolin-7-ylamino]-pyrimidin-4-ylamino}-N-methyl-benzamide]	> 0.01 µM
FC(F)(F)c1cnc(Nc2ccc3c(c2)CCN(Cc2ccncn2)C3)nc1NC1CC1 [Compound A75]	< 0.001 µM
CNC(=O)c1ccccc1Nc1nc(Nc2ccc3c(c2)CN(Cc2cccnc2)CC3)ncc1Br [Compound A159, 2-[5-Bromo-2-(2-pyridin-3-ylmethyl-1,2,3,4-tetrahydro-isoquinolin-7-ylamino)-pyrimidin-4-ylamino]-N-methyl-benzamide]	> 0.01 µM
COCCN1CCc2cc(Nc3ncc(C(F)(F)F)c(N4CCc5ccccc54)n3)ccc2C1 [Compound A123, N-(4-(Indolin-1-yl)-5-(trifluoromethyl)pyrimidin-2-yl)-2-(2-methoxyethyl)-1,2,3,4-tetra-hydroisoquinolin-6-amine]	> 0.01 µM
CNC(=O)c1ccccc1Oc1nc(Nc2ccc3c(c2)CCN(CCOC)C3)ncc1C(F)(F)F [Compound A121, 2-((2-((2-(2-Methoxyethyl)-1,2,3,4-tetrahydroisoquinolin-6-yl)amino)-5-(trifluoromethyl)pyrimidin-4-yl)oxy)-N-methylbenzamide]	> 0.01 µM
NCCC(=O)N1CCc2cc(Nc3ncc(C(F)(F)F)c(NC4CC4)n3)ccc2C1 [Compound A31]	< 0.001 µM
FC(F)(F)c1cnc(Nc2ccc3c(c2)CCN(Cc2ccc[nH]2)C3)nc1NC1CC1 [Compound A93]	0.001 to 0.01 µM
FC(F)(F)c1cnc(Nc2ccc3c(c2)CN(CCS)CC3)nc1NC1CC1 [Compound A78]	< 0.001 µM
CS(=O)(=O)N1CCc2ccc(Nc3ncc(C(F)(F)F)c(NC4CC4)n3)cc2C1 [Compound A104]	0.001 to 0.01 µM
Nc1ccc(CN2CCc3cc(Nc4ncc(C(F)(F)F)c(NC5CC5)n4)ccc3C2)cc1 [Compound A112]	> 0.01 µM
FC(F)(F)c1cnc(Nc2ccc3c(c2)CCN(Cc2ccncc2)C3)nc1NC1CC1 [Compound A3]	< 0.001 µM

same assay, conditions: Table 2

Compound	IC50
CNC(=O)c1ccccc1Oc1nc(Nc2ccc3c(c2)OCO3)ncc1C(F)(F)F [Compound B52, 2-((2-(Benzo[d][1,3]dioxol-5-ylamino)-5-(trifluoromethyl)pyrimidin-4-yl)oxy)-N-methyl benzamide]	> 1 µM
COC(=O)c1ccccc1Oc1nc(Nc2ccc(SC)cc2)ncc1Br [Compound B32]	> 1 µM

same assay, conditions: Table 3

Compound	IC50
CNC(=O)c1ccccc1Nc1nc(Nc2ccc3c(c2)OCCO3)ncc1Br [Compound E4, 2-((5-Bromo-2-((2,3-dihydrobenzo[b][1,4]dioxin-6-yl)amino)pyrimidin-4-yl)amino)-N-methylbenzamide]	0.005 to 0.1 µM
NCc1ccc(Nc2ncc(C(F)(F)F)c(NC3CC3)n2)cc1 [Compound D3]	< 0.005 µM
COc1cc(Nc2ncc(Br)c(Nc3ccccc3C(=O)O)n2)cc(OC)c1OC [Compound E2]	< 0.005 µM
O=c1[nH]c2ccc(Nc3ncc(C(F)(F)F)c(NC4CC4)n3)cc2[nH]1 [Compound D1]	0.005 to 0.1 µM
COc1cc(Nc2ncc(Br)c(Nc3ccccc3C(=O)NCC(F)F)n2)cc(OC)c1OC [Compound E22, 2-((5-Bromo-2-((3,4,5-trimethoxyphenyl)amino)pyrimidin-4-yl)amino)-N-(2,2-difluoroethyl)benzamide]	0.005 to 0.1 µM
COc1cc(Nc2nccc(Nc3ccccc3CN)n2)cc(OC)c1OC [Compound C13]	> 0.1 µM

biological target: T2, NanoLuc®-ULK1 Fusion (Homo sapiens, UniProt O75385); assay: ULK1 NanoBRET assay in HEK293T cells; format: cell-based; details: Table 1, 2 h incubation
T2 construct: host or cells: HEK293T
T2 sequence (O75385 1-1050): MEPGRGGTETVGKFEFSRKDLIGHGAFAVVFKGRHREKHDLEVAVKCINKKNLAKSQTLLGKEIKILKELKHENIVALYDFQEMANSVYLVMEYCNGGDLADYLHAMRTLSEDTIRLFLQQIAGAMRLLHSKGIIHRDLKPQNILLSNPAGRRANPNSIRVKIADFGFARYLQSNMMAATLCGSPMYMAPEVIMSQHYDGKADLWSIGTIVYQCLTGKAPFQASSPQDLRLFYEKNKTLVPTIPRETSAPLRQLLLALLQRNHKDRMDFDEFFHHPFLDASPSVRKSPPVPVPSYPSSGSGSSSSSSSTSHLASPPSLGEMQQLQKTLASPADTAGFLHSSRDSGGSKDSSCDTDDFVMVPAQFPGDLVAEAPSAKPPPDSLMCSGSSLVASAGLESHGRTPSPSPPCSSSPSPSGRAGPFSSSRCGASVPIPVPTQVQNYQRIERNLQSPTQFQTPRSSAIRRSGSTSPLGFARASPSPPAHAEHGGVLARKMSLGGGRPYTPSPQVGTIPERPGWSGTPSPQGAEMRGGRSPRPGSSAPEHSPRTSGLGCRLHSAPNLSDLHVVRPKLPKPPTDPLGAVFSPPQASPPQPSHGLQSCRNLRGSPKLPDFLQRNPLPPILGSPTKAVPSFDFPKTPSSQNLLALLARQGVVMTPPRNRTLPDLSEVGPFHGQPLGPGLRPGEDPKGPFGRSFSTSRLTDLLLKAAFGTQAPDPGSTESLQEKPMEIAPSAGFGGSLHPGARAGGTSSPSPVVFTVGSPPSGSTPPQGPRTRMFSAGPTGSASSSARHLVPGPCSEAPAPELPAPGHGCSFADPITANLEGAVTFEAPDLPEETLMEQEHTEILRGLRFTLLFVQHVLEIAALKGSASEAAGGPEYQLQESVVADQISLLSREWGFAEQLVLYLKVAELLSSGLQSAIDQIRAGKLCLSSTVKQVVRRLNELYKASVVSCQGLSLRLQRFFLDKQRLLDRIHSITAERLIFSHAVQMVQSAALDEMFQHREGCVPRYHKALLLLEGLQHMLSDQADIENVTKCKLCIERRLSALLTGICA
Method: IC50s were also measured by ULK1 NanoBRET assay according to the following protocol: Human embryonic kidney cells (HEK293T) were transfected with NanoLuc®-ULK1 Fusion Vector (Promega #NV2211) using jetPRIME transfection reagent (Polyplus Transfection #114-15). Following 24 h, cells were trypsinized and resuspended in Opti-MEM® I (1×), Reduced Serum Medium (Gibco, #11058-021). Approximately, 7,000 cells per well (in 34 μL total volume) were replated into non-binding surface 384 well plates. Complete NanoBRET 20× Tracer K-5 reagent was prepared according to the manufacturer's directions and 2 μL were added to each well of the 384 plate (assay plate). The assay plate was mixed on an orbital shaker for 15 seconds at 700 rpm. Compounds were serially diluted at 200× final concentration in 100% DMSO, then diluted to 10× final concentration in assay media (Opti-MEM® I, Reduced Serum Medium). Next, 4 μL 10× test compounds were added to each well of the assay plate, followed by mixing at 700 rpm for 15 seconds. The assay plate was incubated for 2 h in a 37 C incubator with 5% CO2 and then equilibrated to RT for 15 min. The 3× Complete Substrate plus Inhibitor Solution was prepared according to the manufacturer's directions with a concentration of Extracellular NanoLuc® Inhibitor of 60 μM to be used at a working concentration of […]. The 3× Complete Substrate plus Inhibitor Solution was mixed and 20 μL per well was added to the assay plate and incubated at RT for 2-3 min. Donor emission wavelength (450 nm) and acceptor emission wavelength (610 nm) were measured using an assay compatible luminometer (see manufacturer's specifications).

Compound	IC50
CNC(=O)c1ccccc1Nc1nc(Nc2ccc3c(c2)CCN(CCOC)C3)ncc1Br [Compound A118, 2-((5-Bromo-2-((2-(2-methoxyethyl)-1,2,3,4-tetrahydroisoquinolin-6-yl)amino)pyrimidin-4-yl)amino)-N-methylbenzamide]	< 0.1 µM
CC(=O)N1CCc2cc(Nc3ncc(C(F)(F)F)c(NC4CC4)n3)ccc2C1 [Compound A19]	< 0.1 µM
CNC(=O)c1ccccc1Nc1nc(Nc2ccc3c(c2)CCN(CCOC)C3)ncc1Cl [Compound A117, 2-((5-Chloro-2-((2-(2-methoxyethyl)-1,2,3,4-tetrahydroisoquinolin-6-yl)amino)pyrimidin-4-yl)amino)-N-methylbenzamide]	< 0.1 µM

same assay, conditions: Table 3

Compound	IC50
CNC(=O)c1ccccc1Nc1nc(Nc2cc(OC)c(OC)c(OC)c2)ncc1C1CC1 [Compound E10, 2-((5-Cyclopropyl-2-((3,4,5-trimethoxyphenyl)amino)pyrimidin-4-yl)amino)-N-methyl-benzamide]	> 0.1 µM
CNC(=O)c1ccccc1Nc1nc(Nc2ccc3c(c2)OCCO3)ncc1Br [Compound E4, 2-((5-Bromo-2-((2,3-dihydrobenzo[b][1,4]dioxin-6-yl)amino)pyrimidin-4-yl)amino)-N-methylbenzamide]	> 0.1 µM
CNC(=O)c1ccccc1Nc1nc(Nc2cc(OC)c(OC)c(OC)c2)ncc1C#N [Compound E9, 2-((5-cyano-2-((3,4,5-trimethoxyphenyl)amino)pyrimidin-4-yl)amino)-N-methylbenzamide]	< 0.1 µM
CNC(=O)c1ccccc1Nc1nc(Nc2cc(OC)c(OC)c(OC)c2)ncc1F [Compound E12, 2-((5-Fluoro-2-((3,4,5-trimethoxyphenyl)amino)pyrimidin-4-yl)amino)-N-methylbenzamide]	> 0.1 µM
CNC(=O)c1ccccc1Nc1nc(Nc2cc(OC)c(OC)c(OC)c2)ncc1C [Compound E11, N-Methyl-2-((5-methyl-2-((3,4,5-trimethoxyphenyl)amino)pyrimidin-4-yl)amino)benzamide]	> 0.1 µM
CNC(=O)c1ccccc1Nc1nc(Nc2cc(OC)c(OC)c(OC)c2)ncc1I [Compound E13, 2-((5-iodo-2-((3,4,5-trimethoxyphenyl)amino)pyrimidin-4-yl)amino)-N-methylbenzamide]	< 0.1 µM
